Experimental data reported in the supplement of paper PMC10307832.

What was measured:
Test in all cases: relative viability (nuclei count vs DMSO), 5 days (fraction); higher = more cells survive
PC-14 = system: PC-14
How it was run: (§1)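 Relative viability equals treated-well nuclei counts divided by vehicle-well nuclei counts. Counts came from 4× images of lung cancer cell lines grown in 1536-well plates for 5 days after pin-tool dosing on the day after seeding. Dosing used one drug alone or a fixed anchor-drug dose plus five library-drug doses (not always all listed) in √10 steps, and values are medians of duplicate plates.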

LOU-NH91 = system: LOU-NH91
How it was run: as §1

HARA = system: HARA
How it was run: as §1

NCI-H1437 = system: NCI-H1437
How it was run: as §1

ABC-1 = system: ABC-1
How it was run: as §1

NCI-H1666 = system: NCI-H1666
How it was run: as §1

COR-L 105 = system: COR-L 105
How it was run: as §1

NCI-H661 = system: NCI-H661
How it was run: as §1

NCI-H1650 = system: NCI-H1650
How it was run: as §1

NCI-H2170 = system: NCI-H2170
How it was run: as §1

NCI-H727 = system: NCI-H727
How it was run: as §1

CAL-12T = system: CAL-12T
How it was run: as §1

201T = system: 201T
How it was run: as §1

BEN = system: BEN
How it was run: as §1

HCC-366 = system: HCC-366
How it was run: as §1

LK-2 = system: LK-2
How it was run: as §1

EKVX = system: EKVX
How it was run: as §1

NCI-H2009 = system: NCI-H2009
How it was run: as §1

NCI-H3122 = system: NCI-H3122
How it was run: as §1

NCI-H441 = system: NCI-H441
How it was run: as §1

SW 900 = system: SW 900
How it was run: as §1

NCI-H460 = system: NCI-H460
How it was run: as §1

`Cc1sc2c(c1C)C(c1ccc(Cl)cc1)=N[C@@H](CC(=O)OC(C)(C)C)c1nnc(C)n1-2` [JQ1] + N=C(N)NC(=N)NCCc1ccccc1 [Phenformin] (partner 250 µM) showed a relative viability (PC-14; first compound 0.04 µM) of 0.485, a relative viability (PC-14; first compound 0.1265 µM) of 0.237 and a relative viability (PC-14; first compound 0.4 µM) of 0.432. The relative viability (PC-14; first compound 1.265 µM) was 0.154, the relative viability (PC-14; first compound 4 µM) was 0.167 and the relative viability (LOU-NH91; first compound 0.04 µM) was 0.735. The relative viability (LOU-NH91; first compound 0.1265 µM) was 0.555, the relative viability (LOU-NH91; first compound 0.4 µM) was 0.384 and the relative viability (LOU-NH91; first compound 1.265 µM) was 0.328. The relative viability (LOU-NH91; first compound 4 µM) was 0.326, the relative viability (HARA; first compound 0.04 µM) was 0.465 and the relative viability (HARA; first compound 0.1265 µM) was 0.236. It also gave a relative viability (HARA; first compound 0.4 µM) of 0.484, a relative viability (HARA; first compound 1.265 µM) of 0.173 and a relative viability (HARA; first compound 4 µM) of 0.186. The relative viability (NCI-H1437; first compound 0.04 µM) was 0.274, the relative viability (NCI-H1437; first compound 0.1265 µM) was 0.267 and the relative viability (NCI-H1437; first compound 0.4 µM) was 0.279. For the same compound, the relative viability (NCI-H1437; first compound 1.265 µM) was 0.222, the relative viability (NCI-H1437; first compound 4 µM) was 0.271 and the relative viability (ABC-1; first compound 0.04 µM) was 0.238. For the same compound, the relative viability (ABC-1; first compound 0.1265 µM) was 0.282, the relative viability (ABC-1; first compound 0.4 µM) was 0.225 and the relative viability (ABC-1; first compound 1.265 µM) was 0.227. It also gave a relative viability (ABC-1; first compound 4 µM) of 0.232, a relative viability (NCI-H1666; first compound 0.04 µM) of 0.572 and a relative viability (NCI-H1666; first compound 0.1265 µM) of 0.596. The relative viability (NCI-H1666; first compound 0.4 µM) was 0.501, the relative viability (NCI-H1666; first compound 1.265 µM) was 0.516 and the relative viability (NCI-H1666; first compound 4 µM) was 0.486. It also gave a relative viability (COR-L 105; first compound 0.04 µM) of 0.432, a relative viability (COR-L 105; first compound 0.1265 µM) of 0.239 and a relative viability (COR-L 105; first compound 0.4 µM) of 0.217. The relative viability (COR-L 105; first compound 1.265 µM) was 0.22, the relative viability (COR-L 105; first compound 4 µM) was 0.289 and the relative viability (NCI-H661; first compound 0.04 µM) was 0.264. For the same compound, the relative viability (NCI-H661; first compound 0.1265 µM) was 0.315, the relative viability (NCI-H661; first compound 0.4 µM) was 0.286 and the relative viability (NCI-H661; first compound 1.265 µM) was 0.302. For the same compound, the relative viability (NCI-H661; first compound 4 µM) was 0.282, the relative viability (NCI-H1650; first compound 0.04 µM) was 0.309 and the relative viability (NCI-H1650; first compound 0.1265 µM) was 0.304. For the same compound, the relative viability (NCI-H1650; first compound 0.4 µM) was 0.182, the relative viability (NCI-H1650; first compound 1.265 µM) was 0.118 and the relative viability (NCI-H1650; first compound 4 µM) was 0.137. For the same compound, the relative viability (NCI-H2170; first compound 0.04 µM) was 0.408, the relative viability (NCI-H2170; first compound 0.1265 µM) was 0.394 and the relative viability (NCI-H2170; first compound 0.4 µM) was 0.402. For the same compound, the relative viability (NCI-H2170; first compound 1.265 µM) was 0.354, the relative viability (NCI-H2170; first compound 4 µM) was 0.315 and the relative viability (NCI-H727; first compound 0.04 µM) was 0.458. It also gave a relative viability (NCI-H727; first compound 0.1265 µM) of 0.282, a relative viability (NCI-H727; first compound 0.4 µM) of 0.368 and a relative viability (NCI-H727; first compound 1.265 µM) of 0.393. The relative viability (NCI-H727; first compound 4 µM) was 0.343, the relative viability (CAL-12T; first compound 0.04 µM) was 0.522 and the relative viability (CAL-12T; first compound 0.1265 µM) was 0.443. It also gave a relative viability (CAL-12T; first compound 0.4 µM) of 0.42, a relative viability (CAL-12T; first compound 1.265 µM) of 0.253 and a relative viability (CAL-12T; first compound 4 µM) of 0.284. It also gave a relative viability (201T; first compound 0.04 µM) of 0.47, a relative viability (201T; first compound 0.1265 µM) of 0.415 and a relative viability (201T; first compound 0.4 µM) of 0.408. The relative viability (201T; first compound 1.265 µM) was 0.377, the relative viability (201T; first compound 4 µM) was 0.344 and the relative viability (BEN; first compound 0.04 µM) was 0.273. For the same compound, the relative viability (BEN; first compound 0.1265 µM) was 0.296, the relative viability (BEN; first compound 0.4 µM) was 0.303 and the relative viability (BEN; first compound 1.265 µM) was 0.309. It also gave a relative viability (BEN; first compound 4 µM) of 0.215, a relative viability (HCC-366; first compound 0.04 µM) of 0.699 and a relative viability (HCC-366; first compound 0.4 µM) of 0.614. The relative viability (HCC-366; first compound 1.265 µM) was 0.412, the relative viability (HCC-366; first compound 4 µM) was 0.376 and the relative viability (LK-2; first compound 0.04 µM) was 0.298. It also gave a relative viability (LK-2; first compound 0.1265 µM) of 0.379, a relative viability (LK-2; first compound 0.4 µM) of 0.21 and a relative viability (LK-2; first compound 1.265 µM) of 0.101. The relative viability (LK-2; first compound 4 µM) was 0.147, the relative viability (EKVX; first compound 0.04 µM) was 0.257 and the relative viability (EKVX; first compound 0.1265 µM) was 0.257. It also gave a relative viability (EKVX; first compound 0.4 µM) of 0.27, a relative viability (EKVX; first compound 1.265 µM) of 0.243 and a relative viability (EKVX; first compound 4 µM) of 0.218. The relative viability (NCI-H2009; first compound 0.04 µM) was 0.477, the relative viability (NCI-H2009; first compound 0.1265 µM) was 0.339 and the relative viability (NCI-H2009; first compound 0.4 µM) was 0.291. The relative viability (NCI-H2009; first compound 1.265 µM) was 0.205, the relative viability (NCI-H2009; first compound 4 µM) was 0.223 and the relative viability (NCI-H3122; first compound 0.04 µM) was 0.362. It also gave a relative viability (NCI-H3122; first compound 0.4 µM) of 0.377, a relative viability (NCI-H3122; first compound 1.265 µM) of 0.313 and a relative viability (NCI-H3122; first compound 4 µM) of 0.264. For the same compound, the relative viability (NCI-H441; first compound 0.04 µM) was 0.728, the relative viability (NCI-H441; first compound 0.1265 µM) was 0.778 and the relative viability (NCI-H441; first compound 0.4 µM) was 0.681. The relative viability (NCI-H441; first compound 1.265 µM) was 0.388, the relative viability (NCI-H441; first compound 4 µM) was 0.289 and the relative viability (SW 900; first compound 0.04 µM) was 0.462. It also gave a relative viability (SW 900; first compound 0.1265 µM) of 0.519, a relative viability (SW 900; first compound 0.4 µM) of 0.285 and a relative viability (SW 900; first compound 1.265 µM) of 0.187. It also gave a relative viability (SW 900; first compound 4 µM) of 0.139, a relative viability (NCI-H460; first compound 0.04 µM) of 0.503 and a relative viability (NCI-H460; first compound 0.1265 µM) of 0.271. The relative viability (NCI-H460; first compound 0.4 µM) was 0.123, the relative viability (NCI-H460; first compound 1.265 µM) was 0.0422 and the relative viability (NCI-H460; first compound 4 µM) was 0.041.
